Like-named read-outs stand apart in the source and are kept apart here.
Key:
[1] = biological target: T1, Helicobacter pylori fumarate reductase (Helicobacter pylori, UniProt O06913); format: biochemical; conditions: Control 19.2 ± 2.5
T1 construct: Membrane associated proteins were solubilized from the pellet in 150 mM KCl, pH 7.0; endogenous in cells; host or cells: Helicobacter pylori 007 strain; KCl-solubilised fraction (or sonicate supernatant)
T1 sequence (O06913 1-714): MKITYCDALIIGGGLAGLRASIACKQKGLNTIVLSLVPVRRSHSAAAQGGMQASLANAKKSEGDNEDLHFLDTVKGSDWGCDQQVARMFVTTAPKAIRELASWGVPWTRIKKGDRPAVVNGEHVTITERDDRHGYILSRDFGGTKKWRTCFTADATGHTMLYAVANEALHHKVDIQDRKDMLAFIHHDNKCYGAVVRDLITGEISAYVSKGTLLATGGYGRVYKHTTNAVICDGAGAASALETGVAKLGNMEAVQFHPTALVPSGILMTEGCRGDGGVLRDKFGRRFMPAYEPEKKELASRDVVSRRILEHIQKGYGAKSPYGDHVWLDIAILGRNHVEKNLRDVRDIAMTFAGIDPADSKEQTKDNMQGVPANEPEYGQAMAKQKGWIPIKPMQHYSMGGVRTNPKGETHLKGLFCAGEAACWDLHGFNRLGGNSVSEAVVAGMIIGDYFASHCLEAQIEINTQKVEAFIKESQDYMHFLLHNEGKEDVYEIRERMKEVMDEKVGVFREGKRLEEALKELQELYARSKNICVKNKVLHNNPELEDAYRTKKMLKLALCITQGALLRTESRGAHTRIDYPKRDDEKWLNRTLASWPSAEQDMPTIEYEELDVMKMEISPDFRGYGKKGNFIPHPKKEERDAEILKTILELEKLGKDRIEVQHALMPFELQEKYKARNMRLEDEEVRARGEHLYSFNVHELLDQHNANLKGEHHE
T1 sequence (O06914 1-245 partner): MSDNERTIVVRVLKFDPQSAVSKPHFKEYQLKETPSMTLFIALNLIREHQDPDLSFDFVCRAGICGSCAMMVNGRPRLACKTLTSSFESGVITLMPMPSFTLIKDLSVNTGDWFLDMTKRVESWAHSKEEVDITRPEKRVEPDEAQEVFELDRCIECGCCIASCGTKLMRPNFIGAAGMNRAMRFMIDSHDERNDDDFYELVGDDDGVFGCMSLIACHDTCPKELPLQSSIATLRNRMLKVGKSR
T1 sequence (O06912 1-255 partner): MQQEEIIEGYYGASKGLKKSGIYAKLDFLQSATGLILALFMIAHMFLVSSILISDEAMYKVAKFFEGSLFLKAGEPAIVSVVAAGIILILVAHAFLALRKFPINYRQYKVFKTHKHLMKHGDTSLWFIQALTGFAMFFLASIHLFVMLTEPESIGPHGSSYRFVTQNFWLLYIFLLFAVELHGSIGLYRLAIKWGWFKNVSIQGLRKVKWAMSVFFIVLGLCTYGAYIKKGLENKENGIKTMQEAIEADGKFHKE
Protocol: 1) Extraction of soluble FRD: Bacteria were harvested by centrifugation at 18,000 g for 10 min at 4° C., and were washed 2 times in an isotonic phosphate saline buffer (50 mM sodium phosphate, pH 7.2, 90 mM NaCl, 5 mM Kcl). Bacteria were lysed in 5 mM Tris-HCl, pH 7.4, for 15 minutes, and centrifuged 18,000 g for 10 minutes. Membrane associated proteins were solubilized from the pellet in 150 mM KCl, pH 7.0, in ice bath for 60 min, and then the supernatant was collected after centrifugation (18,000 g for 10 minutes) for the measurement of FRD activity.
2) Extraction of FRD by sonication: Bacteria were harvested by centrifugation at 18,000 g for 10 min at 4° C., were sonicated, and then the supernatant was collected after centrifugation (18,000 g for 10 minutes) for the measurement of FRD activity.
NADH-FRD activity was determined as the rate of NADH-oxidation upon addition of 1 mM fumarate in the KCl-solubilized fraction or sonicated fraction. The reaction was monitored spectrophotometrically at 340 nm (∈=6.2 mM^−1 cm^−1) using 100 μM NADH and usually 3 mg protein in both reference and sample cuvettes. The measurement was carried out in a Shimadzu UV-190 double-beam spectrophotometer. Protein concentrations were determined using a Bio-Rad protein assay (Bio-Rad Laboratories, 200 Alfred Nobel Dr. Hercules, Calif. 94547, USA).
KCl solubilised fraction of bacteria was incubated with different concentrations of various oxygenated chalcones at 28° C. and the remaining FRD activity was measured. The IC50 values were determined as the concentration at which 50% of the activity was inhibited.

IFN-γ = IFN-γ producing human mononuclear cells (PMA+inomycin); format: cell-based; conditions: for % IFN-γ producing cells / inhibition at 12.5 µg/mL: 1b Experiment 2, PMA+inomycin, 12.5 μg/ml; for % IFN-γ producing cells: DMSO Control 16.4; for inhibition of IFN-γ production: concentration of 12.5 μg/ml; for inhibition at 12.5 µg/mL: Homo sapiens
Protocol: Mitogens: LPS at a final conc. of 1 μg/ml for TNF-α and PMA+inomycin for IFN-γ.
Incubation condition: Cells and mitogen added at the same time and the compound solution added immediately after in polypropylene tubes and incubated at 37° C. in CO2 incubator overnight. The following day the cells and the supernatant were harvested for TNF-α determination.

Bacteroides fragilis = assay: Effect on anaerobic bacteria (growth); format: cell-based; conditions: at a concentration of 5 μg/ml
NDH (J774) = assay: Effect on J774 cells NADH dehydrogenase; format: biochemical; conditions: incubation at 28° C. for 5 min
Protocol: FIG. 17. Effect of licochalcone A on J774 cells NADH dehydrogenase. Membrane rich fraction of parasite was incubated with licochalcone A at 28° C. for 5 min, the remaining enzyme activity was measured. Data are mean ±SEM from 4 different experiments.

Coxsackie virus B4 = assay: Antiviral activity in Vero cell cultures; format: cell-based; conditions: Vero cells; values given as fractions
Protocol: (§1) IC50 values are determined by the virus plaque formation and/or the virus cytopathic assay using standard methods well-known in the art.
(§2) In the following is reported the results from a Vero cell culture infected with different viruses. The cell culture used as well as the methods applied are well known to a person skilled in the art.

Parainfluenza-3 Virus = assay: Antiviral activity in Vero cell cultures; format: cell-based; conditions: Vero cells; values given as fractions
Protocol: as §1, §2

Reovirus-1 = assay: Antiviral activity in Vero cell cultures; format: cell-based; conditions: Vero cells; values given as fractions
Protocol: as §1, §2

Simliki forest virus = assay: Antiviral activity in Vero cell cultures; format: cell-based; conditions: Vero cells; values given as fractions
Protocol: as §1, §2

Sindbis virus = assay: Antiviral activity in Vero cell cultures; format: cell-based; conditions: Vero cells; values given as fractions
Protocol: as §1, §2

[2] = system: human embryonic lung (HEL) cells; assay: Cytotoxicity in human embryonic lung (HEL) cells; format: cell-based; conditions: HEL cell growth reduced by 50%; values given as fractions
[3] = compound 50 (unit not given), mean±SD, three experiments

Structure (SMILES)	FRD activity ([1]; compound 1 (unit not given))	FRD activity ([1]; compound 5 (unit not given))	FRD activity ([1]; compound 10 (unit not given))	FRD activity ([1]; compound 25 (unit not given))	FRD activity [1, 3]	% IFN-γ producing cells (IFN-γ)	inhibition of IFN-γ production (IFN-γ; 1b Experiment 3)	inhibition of IFN-γ production (IFN-γ; 1b Experiment 4)	inhibition at 12.5 µg/mL (IFN-γ)	growth of Bacteroides fragilis (Bacteroides fragilis)	IC50 (NDH (J774))	Minimum inhibitory concentration, Coxsackie virus B4 (Coxsackie virus B4)	Minimum inhibitory concentration, Parainfluenza-3 Virus (Parainfluenza-3 Virus)	Minimum inhibitory concentration, Reovirus-1 (Reovirus-1)	Minimum inhibitory concentration, Simliki forest virus (Simliki forest virus)	Minimum inhibitory concentration, Sindbis virus (Sindbis virus)	Cytotoxicity CC50 [2]
COc1cc(/C=C/C(=O)c2ccc([N+](=O)[O-])cc2)cc(OC)c1 [PH105, 4′-nitro-3,5-dimethoxychalcone]	15.8 ± 2.0 mu/mg of protein	8.5 ± 1.8 mu/mg of protein	4.1 ± 1.5 mu/mg of protein	1.7 ± 0.7 mu/mg of protein	0.0 mu/mg of protein	–	–	–	–	–	–	–	–	–	–	–	–
COc1cc(/C=C/C(=O)c2ccc(C3CCCCC3)cc2)cc(OC)c1 [PH104, 3,5-dimethoxy-4′-cyclohexylchalcone]	–	–	–	–	–	17.0%	no inhibition	no inhibition	0%	–	–	–	–	–	–	–	–
C=CC(C)(C)c1cc(/C=C/C(=O)c2ccc(O)cc2)c(OC)cc1O [Licochalcone A]	14.5 ± 2.9 mu/mg of protein	6.8 ± 1.7 mu/mg of protein	2.5 ± 1.1 mu/mg of protein	0.9 ± 0.6 mu/mg of protein	0.0 mu/mg of protein	–	–	–	–	completely inhibted	547.7 μg/mg protein	<1/100	<1/100	<1/100	<1/100	1/600	1/600
C=CCOc1ccc(C(=O)/C=C/c2cc(OC)cc(OC)c2)cc1 [SBC-35ma, 3,5-dimethoxy-4′-allyloxychalcone]	–	–	–	–	–	–	–	–	–	–	–	<1/100	<1/100	<1/100	<1/100	<1/100	<1/60
COc1cc(/C=C/C(=O)c2ccccc2F)cc(OC)c1 [PH135, 2′-fluoro-3,5-dimethoxychalcone]	–	–	–	–	–	14.2%	no inhibition	no inhibition	14%	–	–	–	–	–	–	–	–

From patent US20030065039A1, “Biologically active 1,3-bis-aromatic-prop-2-en-1-ones, 1,3-bis-aromatic-propan-1-ones, and 1,3-bis-aromatic-prop-2-yn-1-ones” (Statens Serum Institute, priority 1997, published 2003)
